The subject of the experiment is Notch signaling (hNotch1ΔE, human Notch1 receptor) in HeLa cells. Put plainly: Notch reporter assay (luciferase luminescence readout in transfected HeLa cells). In kind it is cell-based. The settings on record: 20 hours; for fold induction at 10 µM: Homo sapiens, relative to DMSO baseline level of 1.0, read-out: AVEw, weighted arithmetic mean of double-normalized Notch-reporter luciferase luminescence values (Activity Range). As to the method:
An according Notch-reporter assay, i.e. a luciferase-based luminescence readout, was used here to quantify the ability of the claimed small molecules to augment Notch signaling in a cellular system. For this purpose, HeLa cells, obtainable from the American Type Culture Collection (ATCC) under the accession number ATCC-CCL-2, were transiently transfected for 24 hours using FuGENE® HD (Promega, #E2311) as transfection reagent with expression vectors of a membrane-tethered form of the constitutively active intracellular domain of the human Notch1 receptor (hNotch1ΔE) to activate the signaling cascade (BPS Bioscience, human analogue to Notch Pathway Reporter Kit #60509 component C), a Firefly luciferase being expressed under the control of a Notch-responsive promoter to monitor Notch signaling (BPS Bioscience, Notch Pathway Reporter Kit #60509, CSL luciferase reporter vector from component A not premixed with Renilla luciferase vector), and a Renilla luciferase being constitutively expressed in a Notch signaling independent manner to include a measure for the cell number per sample (Promega, pRL-SV40, #E2231). HeLa cells were cultivated according to the protocol of the provider in DMEM medium (Fisherscientific, #11584456) containing 10% fetal bovine serum (Fisherscientific, #15517589). The transfection was carried out in a 100 mm-culture dish (StarLab, #CC7682-3394) with cells being properly attached to the plate at a cell confluency of 80-90% in a total volume of 7 mL culture medium. Per dish to be transfected, a transfection mix was prepared by adding to 238 μL Opti-MEM (Fisherscientific, #10149832) 40 μL of the hNotch1ΔE expression vector (100 ng/μL), 80 μL of the CSL luciferase reporter vector (40 ng/μL), 4 μL of the pRL-SV40-Renilla luciferase vector (10 ng/μL), and in the last step 18.1 μL of FuGENE® HD. After addition of FuGENE® HD the transfection mix was let stand for 15 min at room temperature and hereafter equally distributed into the culture dish. Subsequently, i.e. after 24 hours of transfection, the transfected cells (10.000 cells per well) were incubated with the test-compounds at a final concentration of 10 μM (diluted from 10 mM stock-solutions in DMSO to a final DMSO concentration of 0.1% v/v) or with the empty carrier DMSO at 0.1% v/v as control for 20 hours in 96-well plates suitable for luminescence readouts (CORNING, #3610). Hereafter, the cells were lysed with 30 μL per well of Passive Lysis Buffer (Promega, #E194A, component of Dual-Luciferase® Reporter Assay System, #E1910) and the Firefly as well as Renilla luciferase values were measured with a luminescence reader with applying 15 μL per well each of the corresponding enzyme substrates needed to create the luminescence signals (Promega, Dual-Luciferase® Reporter Assay System, #E1910).
The suitability of the assays for monitoring Notch signaling was controlled by additionally including a generally accepted commercial Notch inhibitor, i.e. DAPT, as negative control, as well as the reported Notch enhancer resveratrol (RES) as positive control (Pinchot et al., Cancer 2011, 117, 1386-1398; Truong et al., Ann. Surg. Oncol. 2011, 18, 1506-1511; Yu et al., Mol. Cancer Ther. 2013, 12, 1276-1287). Both control compounds were likewise tested at 10 μM.
Per single experiment the measurement was performed in six replicates per compound. For every compound, this experiment was repeated in three or more independent replicates. The values of the Notch-reporter luciferase were normalized by division through the corresponding individual Notch-independent Renilla values in order to eliminate the impact of variation in the absolute cell-numbers in between the samples. For every individual plate, a second normalization was performed against the equally weighted arithmetic mean (here abbreviated as AVE) of the six associated Renilla-normalized DMSO-control values within a single experiment in order to obtain the relative values to a baseline level of 1.0. […]

In the case of `CCCCCc1ccc(Oc2ccc(C(=O)OC)cc2)cc1` [Compound 027, methyl 4-(4-pentylphenoxy)benzoate], the fold induction at 10 µM lay within 1.7 to 2. Take `CCOC(=O)c1ccc(Oc2ccc(C(C)C)cc2)nc1` [Compound 122, ethyl 6-(4-isopropylphenoxy)nicotinate]: the fold induction at 10 µM was 1.3 to 1.4. On the same count and under the same terms, as for `CCCc1ccc(Oc2ccc(C(=O)OCC)cc2F)cc1` [Compound 394, ethyl 3-fluoro-4-(4-propylphenoxy)benzoate], the figure is 1.4 to 1.7. Same read-out and setting: then `CCCc1ccc(Oc2ccc(C(=O)OCC)cc2)cc1` [Compound 050, ethyl 4-(4-propylphenoxy)benzoate], with 1.4 to 1.7; and `CC(C)c1ccc(Oc2ccc(C(N)=O)cn2)cc1` [Compound 247, 6-(4-isopropylphenoxy)nicotinamide], with 1.2 to 1.3. Take `C[C@H](NC(=O)Cc1cc(F)cc(F)c1)C(=O)N[C@H](C(=O)OC(C)(C)C)c1ccccc1` [DAPT, reference compound]: the “AVEw, weighted arithmetic mean of double-normalized Notch-reporter luciferase luminescence values (Activity Range)” value (10 μM, relative to DMSO baseline level of 1.0) was determined as 0.1 ± 0.0. For `CCCc1ccc(Oc2ccc(C(=O)OCC)cn2)cc1` [Compound 118, ethyl 6-(4-propylphenoxy)nicotinate], the fold induction at 10 µM is 1.1 to 1.2. Still for that read-out and setting: then `CCc1ccc(Oc2ccc(C(=O)NC)cn2)cc1` [Compound 292, 6-(4-ethylphenoxy)-N-mtehylnicotinamide], with 1.3 to 1.4; and `CN(C)C(=O)c1ccc(Oc2ccc(C3CCCCC3)cc2)cc1` [Compound 234, 4-(4-cyclohexylphenoxy)-N,N-dimethylbenzamide], with 1.1 to 1.2; and `CCCc1ccc(Oc2ccc(C(=O)OC)cc2)cc1` [Compound 025, methyl 4-(4-propylphenoxy)benzoate], with 1.2 to 1.3. For the compound `COC(=O)c1ccc(Oc2ccc(C34CC5CC(CC(C5)C3)C4)cc2)nc1` [Compound 114, Methyl 6-(4-(adamantan-1-yl)phenoxy)nicotinate], the fold induction at 10 µM fell in the range of 1.7 to 2. Consider `CNC(=O)c1ccc(Oc2ccc(C(C)C)cc2)cc1` [Compound 195, 4-(4-Isopropylphenoxy)-N-methylbenzamide], for which the fold induction at 10 µM was 1.2 to 1.3. On the same count and under the same terms, then `CCCCc1ccc(Oc2ccc(C(=O)OC)cc2)cc1` [Compound 026, methyl 4-(4-butylphenoxy)benzoate], with 1.4 to 1.7. The same measure, in the same setting: then `CNC(=O)c1ccc(Oc2ccc(C)cc2)cc1` [Compound 189, N-methyl-4-(p-tolyloxy)benzamide], with 1.1 to 1.2. Consider `CCCc1ccc(Oc2ccc(C(=O)O)cn2)cc1` [Compound 071, 6-(4-Propylphenoxy)nicotinic acid], for which the fold induction at 10 µM lay within 1.4 to 1.7.

On to `CNC(=O)c1ccc(Oc2ccc(C)cc2)nc1` [Compound 291, N-methyl-6-(p-tolyloxy)nicotinamide], for which the fold induction at 10 µM lay within 1.4 to 1.7. Same read-out and setting: then `Cc1ccc(Oc2ccc(C(N)=O)cn2)cc1` [Compound 241, 6-(p-Tolyloxy)nicotinamide], with 1.2 to 1.3; and `CCCCCc1ccc(Oc2ccc(C(=O)O)cc2)cc1` [Compound 005, 4-(4-Pentylphenoxy)benzoic acid], with 1.7 to 2. Same read-out and setting: then `CCCCCc1ccc(Oc2ccc(C(=O)OCC)cc2)cc1` [Compound 052, ethyl 4-(4-pentylphenoxy)benzoate], with 1.4 to 1.7; and `CCCCc1ccc(Oc2ccc(C(=O)OCC)cc2)cc1` [Compound 051, Ethyl 4-(4-butylphenoxy)benzoate], with 1.7 to 2.

With `CCc1ccc(Oc2ccc(C(N)=O)cn2)cc1` [Compound 242, 6-(4-ethylphenoxy)nicotinamide], the fold induction at 10 µM fell in the range of 1.2 to 1.3. Same read-out and setting: then `O=C(O)c1ccc(Oc2ccc(C3C[C@@H]4CC[C@H]3C4)cc2)cc1` (stereo partly drawn) [Compound 019, 4-(4-((1S,4R)-bicyclo[2.2.1]heptan-2-yl)phenoxy)benzoic acid], with 1.2 to 1.3.

For `CCOC(=O)c1ccc(Oc2ccc(CC)cc2)nc1` [Compound 117, Ethyl 6-(4-Ethylphenoxy)nicotinate], the fold induction at 10 µM lay in the range of 1.4 to 1.7.

`O=C(O)c1ccc(Oc2ccc(C3(C(F)(F)F)CC3)cc2)cc1` [Compound 703, 4-(4-(1-(Trifluoromethyl)cyclopropyl)phenoxy)benzoic acid]: the fold induction at 10 µM was 1.1 to 1.2. On the same count and under the same terms, as for `CCCc1ccc(Oc2ccc(C(=O)O)cc2)cc1` [Compound 003, 4-(4-propylphenoxy)benzoic acid], the figure is 1.7 to 2. With `CC(C)c1ccc(Oc2ccc(C(=O)O)cc2)cc1` [Compound 007, 4-(4-isopropylphenoxy)benzoic acid], the fold induction at 10 µM lay within 1.2 to 1.3. The same measure, in the same setting: as for `CCC(C)(C)c1ccc(Oc2ncc(C(=O)OC)cc2F)cc1` [Compound 451, Methyl 5-fluoro-6-(4-(tert-pentyl)phenoxy)nicotinate], the figure is 1.1 to 1.2; as for `CCCCCc1ccc(Oc2ccc(C(=O)OCC)cc2F)cc1` [Compound 396, ethyl 3-fluoro-4-(4-pentylphenoxy)benzoate], 1.2 to 1.3.

For the compound `CCCCc1ccc(Oc2ccc(C(=O)O)cc2F)cc1` [Compound 344], the fold induction at 10 µM lay within 1.3 to 1.4. On the same count and under the same terms, as for `COC(=O)c1ccc(Oc2ccc(C)cc2)nc1` [Compound 091, methyl 6-(p-tolyloxy)nicotinate], the figure is 1.2 to 1.3.

Consider `CCCCCc1ccc(Oc2ccc(C(=O)OCC)cn2)cc1` [Compound 120, ethyl 6-(4-pentylphenoxy)nicotinate], for which the fold induction at 10 µM fell in the range of 1.4 to 1.7. The same measure, in the same setting: as for `CCCc1ccc(Oc2ccc(C(=O)O)cc2F)cc1` [Compound 343, 3-fluoro-4-(4-propylphenoxy)benzoic acid], the figure is 1.1 to 1.2; as for `CCCCc1ccc(Oc2ccc(C(=O)O)cc2)cc1` [Compound 004, 4-(4-butylphenoxy)benzoic acid], 1.4 to 1.7. On the same count and under the same terms, as for `O=C(O)c1ccc(Oc2ccc(C3(C(F)(F)F)CC3)cc2)nc1` [Compound 730, 6-(4-(1-(Trifluoromethyl)cyclopropyl)phenoxy)nicotinic acid], the figure is 1.1 to 1.2; as for `O=C(O)c1ccc(Oc2ccc(C34CC5CC(CC(C5)C3)C4)cc2)c(F)c1` [Compound 363, 4-(4-((3r,5r,7r)-adamantan-1-yl)phenoxy)-3-fluorobenzoic acid], 1.2 to 1.3; as for `CNC(=O)c1ccc(Oc2ccc(C(C)C)cc2)nc1` [Compound 297, 6-(4-Isopropylphenoxy)-N-methylnicotinamide], 1.4 to 1.7.

Source of the values: US12600696B2 (XENIOPRO GMBH, priority 2017, dated 2026).
